Biological target: Casein kinase I isoform alpha (Homo sapiens, UniProt P48729)
Assay: Binding affinity to human CK1alpha2

Sequence of Casein kinase I isoform alpha (P48729 whole entry, canonical isoform): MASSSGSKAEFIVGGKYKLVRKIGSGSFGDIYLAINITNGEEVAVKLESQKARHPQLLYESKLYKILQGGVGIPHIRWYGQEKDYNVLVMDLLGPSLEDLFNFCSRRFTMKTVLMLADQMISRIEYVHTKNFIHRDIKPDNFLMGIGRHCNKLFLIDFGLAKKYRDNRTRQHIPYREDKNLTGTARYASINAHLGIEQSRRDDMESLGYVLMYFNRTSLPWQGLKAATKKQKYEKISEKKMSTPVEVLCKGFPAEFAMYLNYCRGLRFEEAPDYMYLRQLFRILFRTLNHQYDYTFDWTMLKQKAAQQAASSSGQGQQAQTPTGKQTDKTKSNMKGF

CC(=O)c1c(-c2ccncc2)[nH]c(-c2ccncc2)c1C [1-(4-methyl-2,5-di(pyridin-4-yl)-1H-pyrrol-3-yl)ethanone]
Kd: 225 nM
